US12514938B2, “Fibroblast activation protein targeting peptides” (PERSPECTIVE THERAPEUTICS, INC., priority 2023, dated 2026)
*1 amine or outer side, *2 acyl side, *3 side chain or, on linkers, in order; H or OH if unused. Where a SMILES comes first, the peptide text is derived from it. Bridges are numbered along the chain shown (N, C = ends). [ ]: non-standard residue; d: D form. The star is where a group is joined. X2 = NC(=O)CN1CCN(CC(=O)O)CCN(CC(=O)NCCOCCOCCC(=O)NCCSCc2cc(C[*:1])cc(C[*:2])c2)CCN(CC(=O)O)CC1; X1 = NC(=O)CN1CCN(CC(=O)O)CCN(CC(=O)*)CCN(CC(=O)O)CC1; 1Nal = N[C@@H](Cc1cccc2ccccc12)C(=O)O; mXylylene = c1cc(C[*:1])cc(C[*:2])c1; oXylylene = c1ccc(C[*:2])c(C[*:1])c1; pXylylene = c1cc(C[*:2])ccc1C[*:1]; PEG4 = NCCOCCOCCOCCOCCC(=O)O; PEG2 = NCCOCCOCCC(=O)O; Butyryl = CCCC(=O)*; Ahx = NCCCCCC(=O)O

Target: T1, Human Fibroblast Activation Protein (FAP) (Homo sapiens, UniProt Q12884)
T1 sequence (Q12884 1-760): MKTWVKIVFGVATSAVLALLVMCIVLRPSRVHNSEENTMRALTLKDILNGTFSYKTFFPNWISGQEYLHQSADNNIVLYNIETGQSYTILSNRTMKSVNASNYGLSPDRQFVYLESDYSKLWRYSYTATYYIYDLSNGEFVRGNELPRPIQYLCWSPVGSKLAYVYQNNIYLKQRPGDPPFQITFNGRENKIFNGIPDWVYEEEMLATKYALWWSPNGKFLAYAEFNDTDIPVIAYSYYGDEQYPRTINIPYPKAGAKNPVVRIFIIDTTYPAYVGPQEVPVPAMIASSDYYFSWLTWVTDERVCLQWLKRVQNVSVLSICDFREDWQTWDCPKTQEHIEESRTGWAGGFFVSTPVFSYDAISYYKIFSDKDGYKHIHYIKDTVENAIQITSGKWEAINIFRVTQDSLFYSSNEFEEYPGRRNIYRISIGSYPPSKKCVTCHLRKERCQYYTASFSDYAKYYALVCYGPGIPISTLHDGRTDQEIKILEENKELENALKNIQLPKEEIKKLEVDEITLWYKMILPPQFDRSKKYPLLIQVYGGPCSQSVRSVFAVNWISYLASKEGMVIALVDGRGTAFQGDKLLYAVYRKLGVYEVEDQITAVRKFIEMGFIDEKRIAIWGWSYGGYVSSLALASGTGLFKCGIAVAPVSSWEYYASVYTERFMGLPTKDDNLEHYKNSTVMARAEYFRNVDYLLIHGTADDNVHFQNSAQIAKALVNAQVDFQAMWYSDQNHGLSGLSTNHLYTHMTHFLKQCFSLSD
Assay: Enzyme inhibition assay against human FAP (substrate Z-GP-AMC), Example 1
Format: biochemical
Details: human FAP 5 ng/well, 50 μM Z-GP-AMC; Ki from IC50 by Cheng-Prusoff
Method: Binding Affinity Against Human Fibroblast Activation Protein (FAP)
An enzyme inhibition assay was performed to determine IC50 values and then the Cheng-Prusoff equation used to calculate the Ki given a known Km of the substrate Z-GP-AMC for FAP. To perform the assay, FAP (5 ng/well) and the test peptide at varying concentrations (i.e. 10^−6 to 10^−12) were incubated in a black 96-well plate for 10 minutes at RT on a shaker plate. Then, the substrate Z-GP-AMC was added to give a final concentration of 50 μM. The total reaction volume per well was 100 μL The reaction was allowed to incubate at RT on a shaker plate for 1 hour protected from light, and then fluorescence read with a BioTek Synergy LX plate reader at an ex/em (360/40 and 460/40). Experiments were performed in at least duplicate, and controls of buffer only, buffer and FAP enzyme, and buffer with substrate and FAP enzyme only were included for comparison. The buffer used for the assay was 50 mM Tris-HCl, 1M NaCl, and 1 mg/mL BSA, pH=7.5. Data was plotted in GraphPad Prism and non-linear regression used to calculate IC50 values. The compounds tested and Ki values of each were as follows: […]

`CCCC(=O)N[C@H]1CSCc2cc(CSCCNC(=O)CCOCCOCCNC(=O)CN3CCN(CC(=O)O)CCN(CC(N)=O)CCN(CC(=O)O)CC3)cc(c2)CSC[C@@H](C(N)=O)NC(=O)[C@H](Cc2c[nH]c3ccccc23)NC(=O)[C@H](Cc2c[nH]c3ccccc23)NC(=O)[C@H](CCC(N)=O)NC(=O)[C@H](CCC(=O)O)NC(=O)[C@H](Cc2c[nH]c3ccccc23)NC(=O)[C@@H]2CCCN2C(=O)[C@H]([C@@H](C)O)NC1=O` [VMT-FAP-2-57, But-[C(mXtB(CA-PEG2-PSC))TPWEQWWC]-NH2] (Butyryl-CTPWEQWWC-NH2; linker 1-9 via X2) and `C[C@@H](O)[C@@H]1NC(=O)[C@@H](NC(=O)CCOCCOCCNC(=O)CN2CCN(CC(=O)O)CCN(CC(N)=O)CCN(CC(=O)O)CC2)CSCc2cccc(c2)CSC[C@@H](C(N)=O)NC(=O)[C@H](Cc2c[nH]c3ccccc23)NC(=O)[C@H](Cc2c[nH]c3ccccc23)NC(=O)[C@H](CCC(N)=O)NC(=O)[C@H](CCC(=O)O)NC(=O)[C@H](Cc2c[nH]c3ccccc23)NC(=O)[C@@H]2CCCN2C1=O` [VMT-FAP-2-83, PSC-PEG2-[C(mXdB)TPWEQWWC]-NH2] ({X1-PEG2}-CTPWEQWWC-NH2; linker 1-9 via mXylylene) are within 1.5-fold of each other in Ki: 0.71 nM for the first, 0.54 nM for the second.

Going from `CC(=O)N[C@@H](CC(N)=O)C(=O)N[C@H]1CSCc2ccccc2CSC[C@@H](C(N)=O)NC(=O)[C@H](Cc2c[nH]c3ccccc23)NC(=O)[C@H](Cc2c[nH]c3ccccc23)NC(=O)[C@H](CCC(N)=O)NC(=O)[C@H](CCC(=O)O)NC(=O)[C@H](Cc2c[nH]cn2)NC(=O)[C@@H]2CCCN2C(=O)[C@H]([C@@H](C)O)NC1=O` [VMT-FAP-1-64, Ac-N[C(oXdB)TPHEQWWC]-NH2] (Ac-NCTPHEQWWC-NH2; linker 2-10 via oXylylene) to `CC(=O)N[C@@H](CO)C(=O)N[C@H]1CSCc2ccccc2CSC[C@@H](C(N)=O)NC(=O)[C@H](Cc2c[nH]c3ccccc23)NC(=O)[C@H](Cc2c[nH]c3ccccc23)NC(=O)[C@H](CCC(N)=O)NC(=O)[C@H](CCC(=O)O)NC(=O)[C@H](Cc2ccccc2)NC(=O)[C@@H]2CCCN2C(=O)[C@H]([C@@H](C)O)NC1=O` [VMT-FAP-2-12, Ac-S[C(oXdB)TPFEQWWC]-NH2] (Ac-SCTPFEQWWC-NH2; linker 2-10 via oXylylene), the Ki falls from 10.7 nM to 0.55 nM (19-fold). The second binds more tightly here.

Going from `C[C@@H](O)[C@@H]1NC(=O)[C@@H](NC(=O)[C@H](CO)NC(=O)CCOCCOCCNC(=O)CN2CCN(CC(=O)O)CCN(CC(N)=O)CCN(CC(=O)O)CC2)CSCc2ccccc2CSC[C@@H](C(N)=O)NC(=O)[C@H](Cc2c[nH]c3ccccc23)NC(=O)[C@H](Cc2c[nH]c3ccccc23)NC(=O)[C@H](CCC(N)=O)NC(=O)[C@H](CCC(=O)O)NC(=O)[C@H](Cc2cccc3ccccc23)NC(=O)[C@@H]2CCCN2C1=O` [VMT-FAP-2-60, PSC-PEG2-S-[C(oXdB)TP1-NalEQWWC]-NH2] ({X1-PEG2}-SCTP[1Nal]EQWWC-NH2; linker 2-10 via oXylylene) to `C[C@@H](O)[C@@H]1NC(=O)[C@@H](NC(=O)[C@H](CO)NC(=O)CCOCCOCCNC(=O)CN2CCN(CC(=O)O)CCN(CC(N)=O)CCN(CC(=O)O)CC2)CSCc2ccccc2CSC[C@@H](C(N)=O)NC(=O)[C@H](Cc2c[nH]c3ccccc23)NC(=O)[C@H](Cc2c[nH]c3ccccc23)NC(=O)[C@H](CCC(=O)O)NC(=O)[C@H](CCC(=O)O)NC(=O)[C@H](Cc2ccccc2)NC(=O)[C@@H]2CCCN2C1=O` [VMT-FAP-2-43, PSC-PEG2-S-[C(oXdB)TPFEEWWC]-NH2] ({X1-PEG2}-SCTPFEEWWC-NH2; linker 2-10 via oXylylene), the Ki falls from 0.48 nM to 0.07 nM (6.9-fold). The second binds more tightly here.

Going from `CC(=O)NCC(=O)N[C@H]1CSCc2ccccc2CSC[C@@H](C(N)=O)NC(=O)[C@H](Cc2c[nH]c3ccccc23)NC(=O)[C@H](Cc2c[nH]c3ccccc23)NC(=O)[C@H](CCC(N)=O)NC(=O)[C@H](CCC(=O)O)NC(=O)[C@H](Cc2ccccc2)NC(=O)[C@@H]2CCCN2C(=O)[C@H]([C@@H](C)O)NC1=O` [VMT-FAP-1-1, Ac-G[C(oXdB)TPFEQWWC]-NH2] (Ac-GCTPFEQWWC-NH2; linker 2-10 via oXylylene) to `CC(=O)N[C@@H](CO)C(=O)N[C@H]1CSCc2ccccc2CSC[C@@H](C(N)=O)NC(=O)[C@H](Cc2c[nH]c3ccccc23)NC(=O)[C@H](Cc2c[nH]c3ccccc23)NC(=O)[C@H](CCC(=O)O)NC(=O)[C@H](CCC(=O)O)NC(=O)[C@H](Cc2ccccc2)NC(=O)[C@@H]2CCCN2C(=O)[C@H]([C@@H](C)O)NC1=O` [VMT-FAP-1-105, Ac-S[C(oXdB)TPFEEWWC]-NH2] (Ac-SCTPFEEWWC-NH2; linker 2-10 via oXylylene), the Ki falls from 10.4 nM to 0.38 nM (27-fold). The second binds more tightly here.

Going from `C[C@@H](O)[C@@H]1NC(=O)[C@@H](NC(=O)CCOCCOCCNC(=O)CN2CCN(CC(=O)O)CCN(CC(N)=O)CCN(CC(=O)O)CC2)CSCc2ccccc2CSC[C@@H](C(=O)O)NC(=O)[C@H](Cc2c[nH]c3ccccc23)NC(=O)[C@H](Cc2c[nH]c3ccccc23)NC(=O)[C@H](CCC(N)=O)NC(=O)[C@H](CCC(=O)O)NC(=O)[C@H](Cc2c[nH]c3ccccc23)NC(=O)[C@@H]2CCCN2C1=O` [VMT-FAP-2-76, PSC-PEG2-[C(oXdB)TPWEQWWC]-COOH] ({X1-PEG2}-CTPWEQWWC-OH; linker 1-9 via oXylylene) to `C[C@@H](O)[C@@H]1NC(=O)[C@@H](NC(=O)CCOCCOCCOCCOCCNC(=O)CN2CCN(CC(=O)O)CCN(CC(N)=O)CCN(CC(=O)O)CC2)CSCc2ccccc2CSC[C@@H](C(N)=O)NC(=O)[C@H](Cc2c[nH]c3ccccc23)NC(=O)[C@H](Cc2c[nH]c3ccccc23)NC(=O)[C@H](CCC(N)=O)NC(=O)[C@H](CCC(=O)O)NC(=O)[C@H](Cc2c[nH]c3ccccc23)NC(=O)[C@@H]2CCCN2C1=O` [VMT-FAP-2-69, PSC-PEG4-[C(oXdB)TPWEQWWC]-NH2] ({X1-PEG4}-CTPWEQWWC-NH2; linker 1-9 via oXylylene), the Ki falls from 31.4 nM to 0.01 nM (3100-fold).

Going from `C[C@@H](O)[C@@H]1NC(=O)[C@@H](NC(=O)CCOCCOCCNC(=O)CN2CCN(CC(=O)O)CCN(CC(N)=O)CCN(CC(=O)O)CC2)CSCc2ccc(cc2)CSC[C@@H](C(N)=O)NC(=O)[C@H](Cc2c[nH]c3ccccc23)NC(=O)[C@H](Cc2c[nH]c3ccccc23)NC(=O)[C@H](CCC(N)=O)NC(=O)[C@H](CCC(=O)O)NC(=O)[C@H](Cc2c[nH]c3ccccc23)NC(=O)[C@@H]2CCCN2C1=O` [VMT-FAP-2-82, PSC-PEG2-[C(pXdB)TPWEQWWC]-NH2] ({X1-PEG2}-CTPWEQWWC-NH2; linker 1-9 via pXylylene) to `C[C@@H](O)[C@@H]1NC(=O)[C@@H](NC(=O)[C@H](CO)NC(=O)CCOCCOCCNC(=O)CN2CCN(CC(=O)O)CCN(CC(N)=O)CCN(CC(=O)O)CC2)CSCc2cccc(c2)CSC[C@@H](C(N)=O)NC(=O)[C@H](Cc2c[nH]c3ccccc23)NC(=O)[C@H](Cc2c[nH]c3ccccc23)NC(=O)[C@H](CCC(N)=O)NC(=O)[C@H](CCC(=O)O)NC(=O)[C@H](Cc2c[nH]c3ccccc23)NC(=O)[C@@H]2CCCN2C1=O` [VMT-FAP-2-48, PSC-PEG2-S-[C(mXdB)TPWEQWWC]-NH2] ({X1-PEG2}-SCTPWEQWWC-NH2; linker 2-10 via mXylylene), the Ki falls from 2.68 nM to 0.35 nM (7.7-fold). The second binds more tightly here.

First: C[C@@H](O)[C@@H]1NC(=O)[C@@H](NC(=O)CCCCCNC(=O)CN2CCN(CC(=O)O)CCN(CC(N)=O)CCN(CC(=O)O)CC2)CSCc2ccccc2CSC[C@@H](C(N)=O)NC(=O)[C@H](Cc2c[nH]c3ccccc23)NC(=O)[C@H](Cc2c[nH]c3ccccc23)NC(=O)[C@H](CCC(N)=O)NC(=O)[C@H](CCC(=O)O)NC(=O)[C@H](Cc2c[nH]c3ccccc23)NC(=O)[C@@H]2CCCN2C1=O [VMT-FAP-2-70, PSC-6AHA-[C(oXdB)TPWEQWWC]-NH2] ({X1-Ahx}-CTPWEQWWC-NH2; linker 1-9 via oXylylene)
Second: C[C@@H](O)[C@@H]1NC(=O)[C@@H]2CCCN2C(=O)[C@H](Cc2c[nH]c3ccccc23)NC(=O)[C@H](CCC(=O)O)NC(=O)[C@H](CCC(N)=O)NC(=O)[C@H](Cc2c[nH]c3ccccc23)NC(=O)[C@H](Cc2c[nH]c3ccccc23)NC(=O)[C@@H](NC(=O)CCOCCOCCNC(=O)CN2CCN(CC(=O)O)CCN(CC(N)=O)CCN(CC(=O)O)CC2)CSCc2ccccc2CSC[C@@H](C(=O)N[C@@H](CO)C(N)=O)NC1=O [VMT-FAP-2-84, PSC-PEG2-[C(oXdB)WWQEWPTC]S-NH2] ({X1-PEG2}-CWWQEWPTCS-NH2; linker 1-9 via oXylylene)
The Ki of the first is 180-fold lower: 0.64 nM for the first, 115 nM for the second. The first binds more tightly here.
